Source: patent publication US20230127944A1, “BROAD-SPECTRUM CARBAPENEMS” (priority 2019, published 2023)
Converted amounts (≈) assume the structure as drawn.

Assays:
Type in all cases: cell-based
[1] = system: P. aeruginosa ATCC 27853 (wild-type/QC strain); assay: broth microdilution MIC assay, P. aeruginosa 27853; details: Pseudomonas aeruginosa, ATCC27853; read-out: MIC, P. aeruginosa 27853
Method: (§1) To determine the ability of test compounds to inhibit the growth of bacterial strains, classic cell-based broth microdilution MIC assays were employed. MIC assays are performed according to CLSI methods except where otherwise noted (CLSI, 2011 and CLSI, 2009). The reference strains S. aureus ATCC 29213 (methicillin sensitive), S. aureus ATCC 33591 (methicillin-resistant), E. coli ATCC 25922 (wild-type/QC strain), P. aeruginosa ATCC 27853 (wild-type/QC strain), and the clinical isolate P. aeruginosa PA 8 were used to determine the ability of the exemplary carbapenem compounds to inhibit bacterial growth. An expanded panel of methicillin resistance S. aureus (MRSA) and Pseudomonas was also used to determine the ability of exemplary carbapenem compounds to inhibit bacterial growth across a broader representation of those species. To determine activity in MRSA and in addition to S. aureus ATCC 33591, S. aureus USA 300 and USA 600, some of the most common clones found to cause human infection, were also used. To further gauge the impact on the carbapenem compounds due to various resistance mechanisms in Pseudomonas, the following strains were included: P. aeruginosa 35151 (hyper-permeable strain), P. aeruginosa ΔmexAB-OprM (an efflux pump knockout), and P. aeruginosa Paβ-173 (a clinical isolate of reduced carbapenem susceptibility). Briefly, cryo-preserved bacterial cultures of clinical strains are streaked for isolation on appropriate agar medium, in this case Mueller Hinton II agar. Following incubation to allow formation of colonies, these plates are sealed with parafilm and stored refrigerated for up to two weeks. For preparation of assay inocula and to ensure low variability, at least 5 colonies are picked from the agar plates with an inoculating loop and aseptically transferred to a culture tube containing 3 mL of Mueller-Hinton Broth (supplemented with divalent cations to required levels based on Manufacturers' specification). The broth culture is grown for 3-5 hours at 37° C. with shaking at 200 rpm. Meanwhile, 2-fold serial dilutions of test compounds are conducted in a 96 well plate with a final volume of 75 μL per well at 2-fold the final desired concentration. After the dilution plates are set up the growing cultures are then diluted in a cuvette containing MH II broth and the optical density is measured at 600 nm. Inocula are diluted such that 75 μL of this culture in Mueller-Hinton Broth results in a starting bacterial concentration of 5×10^5 CFU/mL when added to the dilution plates. The plates are incubated 16-20 hours at 37° C. The MIC is read visually as the lowest concentration well with no bacterial growth.

P. aeruginosa Paeβ-17 = assay: broth microdilution MIC assay, P. aeruginosa Paeβ-17; details: Pseudomonas aeruginosa, read-out: MIC, P. aeruginosa Paeβ-17
Method: as §1

[2] = system: P. aeruginosa 35151 (hyper-permeable strain); assay: broth microdilution MIC assay, P. aeruginosa 35151; details: Pseudomonas aeruginosa, read-out: MIC, P. aeruginosa 35151
Method: as §1

[3] = system: S. aureus ATCC 33591 (methicillin-resistant); assay: broth microdilution MIC assay, S. aureus 33591; details: Staphylococcus aureus, ATCC33591; S. aureus 33591, methicillin-resistant; read-out: MIC, S. aureus 33591
Method: as §1

[4] = system: P. aeruginosa ΔmexAB-OprM (an efflux pump knockout); assay: broth microdilution MIC assay, P. aeruginosa ΔmexAB-OprM; details: Pseudomonas aeruginosa, read-out: MIC, P. aeruginosa ΔmexAB-OprM
Method: as §1

S. aureus USA 300 = assay: broth microdilution MIC assay, S. aureus USA300; details: Staphylococcus aureus; S. aureus USA300 (MRSA); read-out: MIC, S. aureus USA300
Method: as §1

[5] = system: E. coli ATCC 25922 (wild-type/QC strain); assay: broth microdilution MIC assay, E. coli 25922; details: Escherichia coli, ATCC25922; read-out: MIC, E. coli 25922
Method: as §1

S. aureus USA 600 = assay: broth microdilution MIC assay, S. aureus USA600; details: Staphylococcus aureus; S. aureus USA600 (MRSA); read-out: MIC, S. aureus USA600
Method: as §1

| Compound | MIC [1] [µg/mL] | MIC (P. aeruginosa Paeβ-17) [µg/mL] | MIC [2] [µg/mL] | MIC [3] [µg/mL] | MIC [4] [µg/mL] | MIC (S. aureus USA 300) [µg/mL] | MIC [5] [µg/mL] | MIC (S. aureus USA 600) [µg/mL] |
| --- | --- | --- | --- | --- | --- | --- | --- | --- |
| C[C@@H](O)[C@H]1C(=O)N2C(C(=O)O)=C(SC3CN([C@H]4C[C@@H](CN)C4)C3)[C@H](C)[C@H]12 [Example 1, (4R,5S,6S)-3-((1-((1s,3S)-3-(aminomethyl)cyclobutyl)azetidin-3-yl)thio)-6-((R)-1-hydroxyethyl)-4-methyl-7-oxo-1-azabicyclo[3.2.0]hept-2-ene-2-carboxylic acid] | 8 to 32 (≈ 21 to 83.9 µM) | > 32 | < 1 | 8 to 32 (≈ 21 to 83.9 µM) | 1 to 4 (≈ 2.62 to 10.5 µM) | 1 to 4 (≈ 2.62 to 10.5 µM) | < 1 | 1 to 4 (≈ 2.62 to 10.5 µM) |
| C[C@@H](O)[C@H]1C(=O)N2C(C(=O)O)=C(SC3CN([C@H]4C[C@H](CN)C4)C3)[C@H](C)[C@H]12 [Example 2, (4R,5S,6S)-3-((1-((1r,3R)-3-(aminomethyl)cyclobutyl)azetidin-3-yl)thio)-6-((R)-1-hydroxyethyl)-4-methyl-7-oxo-1-azabicyclo[3.2.0]hept-2-ene-2-carboxylic acid] | 8 to 32 (≈ 21 to 83.9 µM) | > 32 | < 1 | 8 to 32 (≈ 21 to 83.9 µM) | 1 to 4 (≈ 2.62 to 10.5 µM) | 1 to 4 (≈ 2.62 to 10.5 µM) | < 1 | 1 to 4 (≈ 2.62 to 10.5 µM) |
| C[C@@H](O)[C@H]1C(=O)N2C(C(=O)O)=C(SC3CN([C@H]4C[C@@H](N)C4)C3)[C@H](C)[C@H]12 [Example 3, (4R,5S,6S)-3-((1-((1s,3S)-3-aminocyclobutyl)azetidin-3-yl)thio)-6-((R)-1-hydroxyethyl)-4-methyl-7-oxo-1-azabicyclo[3.2.0]hept-2-ene-2-carboxylic acid] | 8 to 32 (≈ 21.8 to 87.1 µM) | > 32 | < 1 | 8 to 32 (≈ 21.8 to 87.1 µM) | 1 to 4 (≈ 2.72 to 10.9 µM) | 1 to 4 (≈ 2.72 to 10.9 µM) | < 1 | 1 to 4 (≈ 2.72 to 10.9 µM) |
| C[C@@H](O)[C@H]1C(=O)N2C(C(=O)O)=C(SC3CN([C@H]4C[C@H](N)C4)C3)[C@H](C)[C@H]12 [Example 4, (4R,5S,6S)-3-((1-((1r,3R)-3-aminocyclobutyl)azetidin-3-yl)thio)-6-((R)-1-hydroxyethyl)-4-methyl-7-oxo-1-azabicyclo[3.2.0]hept-2-ene-2-carboxylic acid] | 8 to 32 (≈ 21.8 to 87.1 µM) | > 32 | < 1 | 8 to 32 (≈ 21.8 to 87.1 µM) | 1 to 4 (≈ 2.72 to 10.9 µM) | 1 to 4 (≈ 2.72 to 10.9 µM) | < 1 | 1 to 4 (≈ 2.72 to 10.9 µM) |
| C[C@@H](O)[C@H]1C(=O)N2C(C(=O)O)=C(SC3CN([C@H]4CC[C@H](N)C4)C3)[C@H](C)[C@H]12 [Example 5, (4R,5S,6S)-3-((1-((1S,3S)-3-aminocyclopentyl)azetidin-3-yl)thio)-6-((R)-1-hydroxyethyl)-4-methyl-7-oxo-1-azabicyclo[3.2.0]hept-2-ene-2-carboxylic acid] | 1 to 4 (≈ 2.62 to 10.5 µM) | 8 to 32 (≈ 21 to 83.9 µM) | < 1 | 1 to 4 (≈ 2.62 to 10.5 µM) | 1 to 4 (≈ 2.62 to 10.5 µM) | 1 to 4 (≈ 2.62 to 10.5 µM) | < 1 | 1 to 4 (≈ 2.62 to 10.5 µM) |
| C[C@@H](O)[C@H]1C(=O)N2C(C(=O)O)=C(SC3CN([C@@H]4CC[C@H](N)C4)C3)[C@H](C)[C@H]12 [Example 6, (4R,5S,6S)-3-((1-((1R,3S)-3-aminocyclopentyl)azetidin-3-yl)thio)-6-((R)-1-hydroxyethyl)-4-methyl-7-oxo-1-azabicyclo[3.2.0]hept-2-ene-2-carboxylic acid] | 1 to 4 (≈ 2.62 to 10.5 µM) | 8 to 32 (≈ 21 to 83.9 µM) | < 1 | 1 to 4 (≈ 2.62 to 10.5 µM) | 1 to 4 (≈ 2.62 to 10.5 µM) | 1 to 4 (≈ 2.62 to 10.5 µM) | < 1 | 1 to 4 (≈ 2.62 to 10.5 µM) |
| C[C@@H](O)[C@H]1C(=O)N2C(C(=O)O)=C(SC3CN([C@H]4CC[C@@H](N)C4)C3)[C@H](C)[C@H]12 [Example 7, (4R,5S,6S)-3-((1-((1S,3R)-3-aminocyclopentyl)azetidin-3-yl)thio)-6-((R)-1-hydroxyethyl)-4-methyl-7-oxo-1-azabicyclo[3.2.0]hept-2-ene-2-carboxylic acid] | 8 to 32 (≈ 21 to 83.9 µM) | 8 to 32 (≈ 21 to 83.9 µM) | < 1 | 8 to 32 (≈ 21 to 83.9 µM) | 1 to 4 (≈ 2.62 to 10.5 µM) | 1 to 4 (≈ 2.62 to 10.5 µM) | < 1 | 1 to 4 (≈ 2.62 to 10.5 µM) |
| C[C@@H](O)[C@H]1C(=O)N2C(C(=O)O)=C(SC3CN([C@@H]4CC[C@@H](N)C4)C3)[C@H](C)[C@H]12 [Example 8, (4R,5S,6S)-3-((1-((1R,3R)-3-aminocyclopentyl)azetidin-3-yl)thio)-6-((R)-1-hydroxyethyl)-4-methyl-7-oxo-1-azabicyclo[3.2.0]hept-2-ene-2-carboxylic acid] | 1 to 4 (≈ 2.62 to 10.5 µM) | 8 to 32 (≈ 21 to 83.9 µM) | < 1 | 1 to 4 (≈ 2.62 to 10.5 µM) | 1 to 4 (≈ 2.62 to 10.5 µM) | 1 to 4 (≈ 2.62 to 10.5 µM) | < 1 | 1 to 4 (≈ 2.62 to 10.5 µM) |
| C[C@@H](O)[C@H]1C(=O)N2C(C(=O)O)=C(SC3CN([C@H]4CC[C@@H](NC(=N)N)C4)C3)[C@H](C)[C@H]12 [Example 9, (4R,5S,6S)-3-((1-((1S,3R)-3-guanidinocyclopentyl)azetidin-3-yl)thio)-6-((R)-1-hydroxyethyl)-4-methyl-7-oxo-1-azabicyclo[3.2.0]hept-2-ene-2-carboxylic acid] | 1 to 4 (≈ 2.36 to 9.44 µM) | 8 to 32 (≈ 18.9 to 75.6 µM) | < 1 | 1 to 4 (≈ 2.36 to 9.44 µM) | < 1 | < 1 | < 1 | < 1 |
| C[C@@H](O)[C@H]1C(=O)N2C(C(=O)O)=C(SC3CN([C@@H]4CC[C@@H](NC(=N)N)C4)C3)[C@H](C)[C@H]12 [Example 10, (4R,5S,6S)-3-((1-((1R,3R)-3-guanidinocyclopentyl)azetidin-3-yl)thio)-6-((R)-1-hydroxyethyl)-4-methyl-7-oxo-1-azabicyclo[3.2.0]hept-2-ene-2-carboxylic acid] | 8 to 32 (≈ 18.9 to 75.6 µM) | 8 to 32 (≈ 18.9 to 75.6 µM) | < 1 | 1 to 4 (≈ 2.36 to 9.44 µM) | 1 to 4 (≈ 2.36 to 9.44 µM) | 1 to 4 (≈ 2.36 to 9.44 µM) | < 1 | 1 to 4 (≈ 2.36 to 9.44 µM) |
| C[C@@H](O)[C@H]1C(=O)N2C(C(=O)O)=C(SC3CN([C@H]4CC[C@H](NC(=N)N)C4)C3)[C@H](C)[C@H]12 [Example 11, (4R,5S,6S)-3-((1-((1S,3S)-3-guanidinocyclopentyl)azetidin-3-yl)thio)-6-((R)-1-hydroxyethyl)-4-methyl-7-oxo-1-azabicyclo[3.2.0]hept-2-ene-2-carboxylic acid] | 1 to 4 (≈ 2.36 to 9.44 µM) | 8 to 32 (≈ 18.9 to 75.6 µM) | < 1 | 1 to 4 (≈ 2.36 to 9.44 µM) | 1 to 4 (≈ 2.36 to 9.44 µM) | 1 to 4 (≈ 2.36 to 9.44 µM) | < 1 | < 1 |
